Legend:
[1] = target: T1, hEP2 (Homo sapiens, UniProt P43116); assay: cAMP assay, hEP2; type: cell-based
[2] = target: hEP4 (Homo sapiens, UniProt P35408); assay: Radioligand binding, EP4 receptor; design: expressed in transfected cells; host or cells: HEK-293; conditions: [3H]PGE2, HEK-293 cells expressing EP4
Method: (§1) HEK-293 cells stably expressing the human or feline FP receptor, or EP1, EP2, or EP4 receptors were washed with TME buffer, scraped from the bottom of the flasks, and homogenized for 30 sec using a Brinkman PT 10/35 polytron. TME buffer was added to achieve a final 40 ml volume in the centrifuge tubes (the composition of TME is 100 mM TRIS base, 20 mM MgCl2, […]; 10N HCl is added to achieve a pH of 7.4).
(§2) The cell homogenate was centrifuged at 19000 r.p.m. for 20 min at 4° C. using a Beckman Ti-60 rotor. The resultant pellet was resuspended in TME buffer to give a final 1 mg/ml protein concentration, as determined by Biorad assay. Radioligand binding competition assays vs. [3H-] 17-phenyl PGF2, (5 nM) were performed in a 100 μl volume for 60 min. Binding reactions were started by adding plasma membrane fraction. The reaction was terminated by the addition of 4 ml ice-cold TRIS-HCl buffer and rapid filtration through glass fiber GF/B filters using a Brandel cell harvester. The filters were washed 3 times with ice-cold buffer and oven dried for one hour.
(§3) [^3H-] PGE2 (specific activity 180 Ci mmol) was used as the radioligand for EP receptors. [^3H] 17-phenyl PGF2, was employed for FP receptor binding studies. Binding studies employing EP1, EP2, EP4 and FP receptors were performed in duplicate in at least three separate experiments. A […] assay volume was used. Incubations were for 60 min at 25° C. and were terminated by the addition of 4 ml of ice-cold 50 mM TRIS-HCl, followed by rapid filtration through Whatman GF/B filters and three additional 4 ml washes in a cell harvester (Brandel). Competition studies were performed using a final concentration of 5 nM [^3H]-PGE2, or 5 nM [^3H] 17-phenyl PGF2, and non-specific binding determined with 10^−5M of unlabeled PGE2, or 17-phenyl PGF2α, according to receptor subtype studied.

[3] = target: T1, hEP2; assay: FLIPR calcium signal, hEP2; type: cell-based; design: expressed in transfected cells; host or cells: HEK-293(EBNA); conditions: HEK-293(EBNA) cells expressing hEP2/Gqs5
Method: Methods for FLIPR™ Studies
HEK-293(EBNA) cells, stably expressing one type or subtype of recombinant human prostaglandin receptors (prostaglandin receptors expressed: hDP/Gqs5; hEP1; hEP2/Gqs5; hEP3A/Gqi5; hEP4/Gqs5; hFP; hIP; hTP), were cultured in 100 mm culture dishes in high-glucose DMEM medium containing 10% fetal bovine serum, 2 mM 1-glutamine, 250 μg/ml geneticin (G418) and 200 μg/ml hygromycin B as selection markers, and 100 units/ml penicillin G, 100 μg/ml streptomycin and 0.25 μg/ml amphotericin B.
Cells were seeded at a density of 5×10^4 cells per well in Biocoat® Poly-D-lysine-coated black-wall, clear-bottom 96-well plates (Becton-Dickinson) and allowed to attach overnight in an incubator at 37° C. Cells were then washed two times with HBSS-HEPES buffer (Hanks Balanced Salt Solution without bicarbonate and phenol red, 20 mM HEPES, pH 7.4) using a Denley Cellwash plate washer (Labsystems). After 45 minutes of dye-loading in the dark, using the calcium-sensitive dye Fluo-4 AM at a final concentration of 2 μM, plates were washed four times with HBSS-HEPES buffer to remove excess dye leaving 100 μl in each well. Plates were re-equilibrated to 37° C. for a few minutes.
Cells were excited with an Argon laser at 488 nm, and emission was measured through a 510-570 nm bandwidth emission filter (FLIPR™, Molecular Devices, Sunnyvale, Calif.). Drug solution was added in a 50 μl volume to each well to give the desired final concentration. The peak increase in fluorescence intensity was recorded for each well. On each plate, four wells each served as negative (HBSS-HEPES buffer) and positive controls (standard agonists: BW245C (hDP); PGE2 (hEP1; hEP2/Gqs5; hEP3A/Gqi5; hEP4/Gqs5); PGF2α (hFP); carbacyclin (hIP); U-46619 (hTP), depending on receptor). The peak fluorescence change in each drug-containing well was then expressed relative to the controls.
Compounds were tested in a high-throughput (HTS) or concentration-response (CoRe) format. In the HTS format, forty-four compounds per plate were examined in duplicates at a concentration of 10^−5 M. To generate concentration-response curves, four compounds per plate were tested in duplicates in a concentration range between 10^−5 and 10^−11 M. The duplicate values were averaged. In either, HTS or CoRe format each compound was tested on at least 3 separate plates using cells from different passages to give an n≧3.

[4] = target: T1, hEP2; assay: Competition binding, [3H]PGE2, human EP2 receptors; design: expressed in transfected cells; host or cells: HEK 293; conditions: [3H]PGE2, HEK 293 cells stably expressing human EP2; read-out: hEP2 Ki
Method: Competition binding experiments were performed in a medium containing Hank's balanced salt solution, Hepes 20 mM, pH 7.3, membranes (˜60 μg protein) or 2×10^5 cells from HEK 293 cells stably expressing human EP2 receptors, [^3H]PGE2 (10 nM) and various concentrations of test compounds in a total volume of 300 μl. Reaction mixtures were incubated at 23° C. for 60 min, and were filtered over Whatman GF/B filters under vacuum. Filters were washed three times with 5 ml ice-cold buffer containing 50 mM Tris/HCl (pH 7.3). Non-specific binding was estimated in the presence of excess unlabeled PGE2 (10 μM). Binding data fitted to the binding model for a single class of binding sites, using nonlinear regression analysis. IC50 values thus obtained were converted to Ki using the equation of Ki=(IC50/(1+[L]/KD) where [L] represents PGE2 concentration (10 nM) and KD the dissociation constant for [^3H]PGE2 at human EP2 receptors (40 nM).
as §1, §2, §3

T1 sequence (P43116 whole entry): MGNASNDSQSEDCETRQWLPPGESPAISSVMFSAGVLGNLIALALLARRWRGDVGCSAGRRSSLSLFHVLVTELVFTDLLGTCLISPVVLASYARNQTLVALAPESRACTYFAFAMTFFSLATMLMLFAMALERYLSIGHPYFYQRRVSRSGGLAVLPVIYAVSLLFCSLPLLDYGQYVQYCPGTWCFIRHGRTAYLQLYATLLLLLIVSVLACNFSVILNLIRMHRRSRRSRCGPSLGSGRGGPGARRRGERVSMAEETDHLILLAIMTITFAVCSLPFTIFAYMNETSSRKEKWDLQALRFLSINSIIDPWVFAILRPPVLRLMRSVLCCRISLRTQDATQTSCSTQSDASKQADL
Sequence of hEP4 (P35408 whole entry): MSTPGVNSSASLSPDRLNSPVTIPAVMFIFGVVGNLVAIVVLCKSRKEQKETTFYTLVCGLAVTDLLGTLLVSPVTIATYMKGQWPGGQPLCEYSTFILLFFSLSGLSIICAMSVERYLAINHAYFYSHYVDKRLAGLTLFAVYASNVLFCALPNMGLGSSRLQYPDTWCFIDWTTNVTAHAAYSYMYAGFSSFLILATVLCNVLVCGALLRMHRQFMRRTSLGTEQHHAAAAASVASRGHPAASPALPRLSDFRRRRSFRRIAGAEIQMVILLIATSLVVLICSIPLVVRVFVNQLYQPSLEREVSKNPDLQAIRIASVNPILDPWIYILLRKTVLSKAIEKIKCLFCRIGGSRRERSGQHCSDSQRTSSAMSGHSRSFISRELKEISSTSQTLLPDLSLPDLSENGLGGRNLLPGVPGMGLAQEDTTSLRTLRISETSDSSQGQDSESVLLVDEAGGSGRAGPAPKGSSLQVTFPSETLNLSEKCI

SMILES | EC50 [1] [nM] | Ki [2] [nM] | EC50 [3] [nM] | Ki [4] [nM]
O=C(O)CCC/C=C\C[C@@H]1[C@@H](COc2cccc(C(O)Cc3ccccc3)c2)[C@H](O)C[C@H]1Cl (stereo partly drawn) [Example 53, (Z)-7-{(1R,2S,3R,5R)-5-Chloro-3-hydroxy-2-[3-(1-hydroxy-2-phenyl-ethyl)-phenoxymethyl]-cyclopentyl}-hept-5-enoic acid] | 496 | 1850 | 1730 | 1750
CC(C)C(O)c1cccc(OC[C@@H]2[C@@H](C/C=C\CCCC(=O)O)[C@H](Cl)C[C@H]2O)c1 (stereo partly drawn) [Example 51, (Z)-7-{(1R,2S,3R,5R)-5-Chloro-3-hydroxy-2-[3-(1-hydroxy-2-methyl-propyl)-phenoxymethyl]-cyclopentyl}-hept-5-enoic acid] | 39 | > 10000 | 196 | 772
CC(C)(c1ccccc1)c1ccc(OC[C@@H]2[C@@H](C/C=C\CCCC(=O)O)[C@H](Cl)C[C@H]2O)cc1 [Example 31, (Z)-7-{(1R,2S,3R,5R)-5-Chloro-3-hydroxy-2-[4-(1-methyl-1-phenyl-ethyl)-phenoxymethyl]-cyclopentyl}-hept-5-enoic acid] |  | 1740 | > 10000 | > 10000
CCCC(O)c1ccc(OC[C@@H]2[C@@H](C/C=C\CCCC(=O)O)[C@H](Cl)C[C@H]2O)cc1 (stereo partly drawn) [Example 44, (Z)-7-{(1R,2S,3R,5R)-5-Chloro-3-hydroxy-2-[4-(1-hydroxy-butyl)-phenoxymethyl]-cyclopentyl}-hept-5-enoic acid] | 66 | > 10000 | 1100 | 2730
COCc1c(C)cc(OC[C@@H]2[C@@H](C/C=C\CCCC(=O)O)[C@H](Cl)C[C@H]2O)cc1C [Example 57, (Z)-7-[(1R,2S,3R,5R)-5-Chloro-3-hydroxy-2-(4-methoxymethyl-3,5-dimethyl-phenoxymethyl)-cyclopentyl]-hept-5-enoic acid] | 23 | 1660 | 142 | 195
CC(O)c1cccc(OC[C@@H]2[C@@H](C/C=C\CCCC(=O)O)[C@H](Cl)C[C@H]2O)c1 (stereo partly drawn) [Example 54, (Z)-7-{(1R,2S,3R,5R)-5-Chloro-3-hydroxy-2-[3-(1-hydroxy-ethyl)-phenoxymethyl]-cyclopentyl}-hept-5-enoic acid] | 40 | > 10000 | 121 | 701
CCCCCC(O)c1ccc(OC[C@@H]2[C@@H](C/C=C\CCCC(=O)O)[C@H](Cl)C[C@H]2O)cc1 (stereo partly drawn) [Example 46, (Z)-7-{(1R,2S,3R,5R)-5-Chloro-3-hydroxy-2-[4-(1-hydroxy-hexyl)-phenoxymethyl]-cyclopentyl}-hept-5-enoic acid] | 119 | 2650 | 531 | 2350
Cc1cc(OC[C@@H]2[C@@H](C/C=C\CCCC(=O)O)[C@H](Cl)C[C@H]2O)cc(C)c1CO [Example 56, (Z)-7-[(1R,2S,3R,5R)-5-Chloro-3-hydroxy-2-(4-hydroxymethyl-3,5-dimethyl-phenoxymethyl)-cyclopentyl]-hept-5-enoic acid] | 1.8 | 2200 | 27 | 64
O=Cc1ccc(OC[C@@H]2[C@@H](C/C=C\CCCC(=O)O)[C@H](Cl)C[C@H]2O)cc1 [Example 42, (Z)-7-[(1R,2S,3R,5R)-5-Chloro-2-(4-formyl-phenoxymethyl)-3-hydroxy-cyclopentyl]-hept-5-enoic acid] | 18 | > 10000 | > 10000 | 1500
O=C(O)CCC/C=C\C[C@@H]1[C@@H](COc2cccc3c2CCC3O)[C@H](O)C[C@H]1Cl (stereo partly drawn) [Example 59, (Z)-7-[(1R,2S,3R,5R)-5-Chloro-3-hydroxy-2-(1-hydroxy-indan-4-yloxymethyl)-cyclopentyl]-hept-5-enoic acid] | 1.2 | 3000 | 108 | 139
O=C(O)CCC/C=C\C[C@@H]1[C@@H](COc2cccc(CO)c2)[C@H](O)C[C@H]1Cl [Example 49, (Z)-7-[(1R,2S,3R,5R)-5-Chloro-3-hydroxy-2-(3-hydroxymethyl-phenoxymethyl)-cyclopentyl]-hept-5-enoic acid] | 14 | > 10000 | 374 | 207
CCCCCC(O)c1cccc(OC[C@@H]2[C@@H](C/C=C\CCCC(=O)O)[C@H](Cl)C[C@H]2O)c1 (stereo partly drawn) [Example 50, (Z)-7-{(1R,2S,3R,5R)-5-Chloro-3-hydroxy-2-[3-(1-hydroxy-hexyl)-phenoxymethyl]-cyclopentyl}-hept-5-enoic acid] | 68 | 1130 | 463 | 826
O=C(O)CCC/C=C\C[C@@H]1[C@@H](COc2cccc3c2CCC3=O)[C@H](O)C[C@H]1Cl [Example 58, (Z)-7-[(1R,2S,3R,5R)-5-Chloro-3-hydroxy-2-(1-oxo-indan-4-yloxymethyl)-cyclopentyl]-hept-5-enoic acid] | 6.5 | 2830 | 51 | 129
CC(O)c1ccc(OC[C@@H]2[C@@H](C/C=C\CCCC(=O)O)[C@H](Cl)C[C@H]2O)cc1 (stereo partly drawn) [Example 47, (Z)-7-{(1R,2S,3R,5R)-5-Chloro-3-hydroxy-2-[4-(1-hydroxy-ethyl)-phenoxymethyl]-cyclopentyl}-hept-5-enoic acid] | 124 | > 10000 | 1940 | 5290
CCCC(OC)c1ccc(OC[C@@H]2[C@@H](C/C=C\CCCC(=O)O)[C@H](Cl)C[C@H]2O)cc1 (stereo partly drawn) [Example 45, (Z)-7-{(1R,2S,3R,5R)-5-Chloro-3-hydroxy-2-[4-(1-methoxy-butyl)-phenoxymethyl]-cyclopentyl}-hept-5-enoic acid] | 47 | 5280 | 661 | 904

Source: patent publication US7405240B2, “Substituted cyclopentanes or cyclopentanones as therapeutic agents” (Allergan, Inc., priority 2006, dated 2008)
